Source: patent US20230011571A1, “SMALL MOLECULE FURIN INHIBITORS FOR TREATING INFECTIOUS DISEASES” (BP Asset V, Inc., priority 2019, published 2023)

Assays:
Type in all cases: cell-based
[1] = system: Chikungunya virus (CHIKV); assay: microbe, parasite or virus in culture; conditions: Chikungunya virus, Vero, 48 h, read-out: Percent viral inhibition CHKV
dengue virus (DENV) = assay: microbe, parasite or virus in culture; conditions: Dengue virus, Vero, 120 h, read-out: Percent viral inhibition DENY
Marburg virus (MARV) = assay: organism not typed; conditions: Vero, 72 h, read-out: Percent viral inhibition MARV

| Structure (SMILES) | inhibition at 1 µM [1] [%] | inhibition at 1 µM (dengue virus (DENV)) [%] | inhibition at 1 µM (Marburg virus (MARV)) [%] |
| --- | --- | --- | --- |
| CC(=O)NCC1CCN(Cc2cc(Oc3cnc(N4CCN(C)CC4)nc3)nc(-c3cc(Cl)cc(Cl)c3)c2)CC1 [Example 64, N-((1-((2-(3,5-dichlorophenyl)-6-((2-(4-methylpiperazin-1-yl)pyrimidin-5-yl)oxy)pyridin-4-yl)methyl)piperidin-4-yl)methyl)acetamide] | 6.9 | 37 | 37.8 |
| CNC(=O)OCC1CCN(Cc2cc(Oc3cnc(N4CCN(C)CC4)nc3)nc(-c3cc(Cl)cc(Cl)c3)c2)CC1 [Example 66, (1-((2-(3,5-dichlorophenyl)-6-((2-(4-methylpiperazin-1-yl)pyrimidin-5-yl)oxy)pyridin-4-yl)methyl)piperidin-4-yl)methylmethylcarbamate] | 7.64 | 57.9 | 60.7 |
| CNC(=O)NCC1CCN(Cc2cc(Oc3cnc(N4CCN(C)CC4)nc3)nc(-c3cc(Cl)cc(Cl)c3)c2)CC1 [Example 70, 1-((1-((2-(3,5-dichlorophenyl)-6-((2-(4-methylpiperazin-1-yl)pyrimidin-5-yl)oxy)pyridin-4-yl)methyl)piperidin-4-yl)methyl)-3-methylurea] | 0 | 0 | 5.52 |
| CN1CCN(c2ncc(Oc3cc(CN4CCC(Cc5nnn[nH]5)CC4)cc(-c4cc(Cl)cc(Cl)c4)n3)cn2)CC1 [Example 72, 5-((4-((4-((1H-tetrazol-5-yl)methyl)piperidin-1-yl)methyl)-6-(3,5-dichlorophenyl)pyridin-2-yl)oxy)-2-(4-methylpiperazin-1-yl)pyrimidine] | 33.7 | 11.2 | 55.8 |
| CNC(=O)OCC1CCN(Cc2cc(Oc3ccc(N4CCN(CCC(=O)O)CC4)nc3)nc(-c3cc(Cl)cc(Cl)c3)c2)CC1 [Example 77, 3-(4-(5-((6-(3,5-dichlorophenyl)-4-((4-(((methylcarbamoyl)oxy)methyl)piperidin-1-yl)methyl)pyridin-2-yl)oxy)pyridin-2-yl)piperazin-1-yl) propanoic acid] | 42 | 20.6 | 57.2 |
| CS(=O)(=O)N[C@H]1[C@@H]2CCN(Cc3cc(Oc4cnc(N5CCN(CCC(=O)O)CC5)nc4)nc(-c4cc(Cl)cc(Cl)c4)c3)CC[C@@H]21 [Example 80, 3-(4-(5-((6-(3,5-dichlorophenyl)-4-(((1R,7S,8r)-8-(methylsulfonamido)-4-azabicyclo[5.1.0]octan-4-yl)methyl)pyridin-2-yl)oxy)pyrimidin-2-yl)piperazin-1-yl)propanoic acid] | 25 | 0 | 64.6 |
| CC(CCN1CCN(c2ncc(Oc3cc(CN4CC[C@@H]5[C@H](CC4)[C@H]5NS(C)(=O)=O)cc(-c4cc(Cl)cc(Cl)c4)n3)cn2)CC1)C(=O)O (stereo partly drawn) [Example 81, 4-(4-(5-((6-(3,5-dichlorophenyl)-4-(((1R,7S,8r)-8-(methylsulfonamido)-4-azabicyclo[5.1.0]octan-4-yl)methyl)pyridin-2-yl)oxy)pyrimidin-2-yl)piperazin-1-yl)-2-methylbutanoic acid] | 26.1 | 50.5 | 73.7 |
| CC(=O)N[C@H]1[C@@H]2CCN(Cc3cc(Oc4cnc(N5CCN(CCC(C)C(=O)O)CC5)nc4)nc(-c4cc(Cl)cc(Cl)c4)c3)CC[C@@H]21 (stereo partly drawn) [Example 82, 4-(4-(5-((4-(((1R,7S,8r)-8-acetamido-4-azabicyclo[5.1.0]octan-4-yl)methyl)-6-(3,5-dichlorophenyl)pyridin-2-yl)oxy)pyrimidin-2-yl)piperazin-1-yl)-2-methylbutanoic acid] | 18.4 | 19.8 | 53.2 |
| CC(CCN1CCN(c2ncc(Oc3cc(CN4CCCC4)cc(-c4cc(Cl)cc(Cl)c4)n3)cn2)CC1)C(=O)O (stereo not drawn) [Example 83, 4-(4-(5-((6-(3,5-dichlorophenyl)-4-(pyrrolidin-1-ylmethyl)pyridin-2-yl)oxy)pyrimidin-2-yl)piperazin-1-yl)-2-methylbutanoic acid] | 33.4 | 28.9 | 53.8 |
| CN1CCN(c2ncc(Oc3cc(CN4CCC(CCS(N)(=O)=O)CC4)cc(-c4cc(Cl)cc(Cl)c4)n3)cn2)CC1 [Example 87, 2-(1-((2-(3,5-dichlorophenyl)-6-((2-(4-methylpiperazin-1-yl)pyrimidin-5-yl)oxy)pyridin-4-yl)methyl)piperidin-4-yl)ethanesulfonamide] | 16.9 | 30.2 | 30.3 |
| CC(=O)NCC1CCN(Cc2cc(Oc3cnc(N4CCN(CCC(N)=O)CC4)nc3)nc(-c3cc(Cl)cc(Cl)c3)c2)CC1 [Example 88, 3-(4-(5-((4-((4-(acetamidomethyl)piperidin-1-yl)methyl)-6-(3,5-dichlorophenyl)pyridin-2-yl)oxy)pyrimidin-2-yl)piperazin-1-yl)propanamide] | 10.9 | 54.6 | 58.6 |
| CC(=O)NCC1CCN(Cc2cc(-c3cc(Cl)cc(Cl)c3)nc(Oc3ccc(N4CCNCC4)nc3)n2)CC1 [Example 90, N-((1-((6-(3,5-dichlorophenyl)-2-((6-(piperazin-1-yl)pyridin-3-yl)oxy)pyrimidin-4-yl)methyl)piperidin-4-yl)methyl)acetamide] | 44.2 | 54.9 | 75.5 |
| CC(=O)NCC1CCN(Cc2cc(Oc3cnc(N4CCN(CCO)CC4)nc3)nc(-c3cc(Cl)cc(Cl)c3)c2)CC1 [Example 93, N-((1-((2-(3,5-dichlorophenyl)-6-((2-(4-(2-hydroxyethyl)piperazin-1-yl)pyrimidin-5-yl)oxy)pyridin-4-yl)methyl)piperidin-4-yl)methyl)acetamide] | 0 | 56.7 | 10.4 |
| CNC(=O)CCN1CCN(c2ncc(Oc3cc(CN4CCC(CNC(C)=O)CC4)cc(-c4cc(Cl)cc(Cl)c4)n3)cn2)CC1 [Example 94, 3-(4-(5-((4-((4-(acetamidomethyl)piperidin-1-yl)methyl)-6-(3,5-dichlorophenyl)pyridin-2-yl)oxy)pyrimidin-2-yl)piperazin-1-yl)-N-methylpropanamide] | 31.3 | 41.5 | 66 |
| CC(=O)NCC1CCN(Cc2cc(Oc3cnc(N4CCN(C(C)CC(N)=O)CC4)nc3)nc(-c3cc(Cl)cc(Cl)c3)c2)CC1 (stereo not drawn) [Example 95] | 46.6 | 58.1 | 59 |
| CNCc1cc(Oc2ccc(N3CCNCC3)nc2)cc(-c2cc(Cl)cc(Cl)c2)c1 [Example 98, 1-(3′,5′-dichloro-5-((6-(piperazin-1-yl)pyridin-3-yl)oxy)-[1,1′-biphenyl]-3-yl)-N-methylmethanamine] | 0 | 0 | 0 |
| NCCNc1ccc(Oc2cc(CN3CCOCC3)cc(-c3cc(Cl)cc(Cl)c3)c2)cn1 [Example 99, N1-(5-((3′,5′-dichloro-5-(morpholinomethyl)-[1,1′-biphenyl]-3-yl)oxy)pyridin-2-yl)ethane-1,2-diamine] | 0 | 15.4 | 0 |
| CC(=O)NCC1CCN(Cc2cc(Oc3ccc(NCC(C)(C)N)nc3)cc(-c3cc(Cl)cc(Cl)c3)c2)CC1 [Example 105, N-((1-((5-((6-((2-amino-2-methylpropyl)amino)pyridin-3-yl)oxy)-3′,5′-dichloro-[1,1′-biphenyl]-3-yl)methyl)piperidin-4-yl)methyl)acetamide] | 0 | 19.9 | 0 |
| CNCc1cc(Oc2ccc(N3CCC(N)CC3)nc2)nc(-c2cc(C)cc(Cl)c2)c1 [Example 108, 1-(5-((6-(3-chloro-5-methylphenyl)-4-((methylamino)methyl)pyridin-2-yl)oxy)pyridin-2-yl)piperidin-4-amine] | 16.4 | 0 | 65.7 |
| CC(=O)NCC1CCN(Cc2cc(Oc3cnc(N4CCNCC4)cn3)nc(-c3cc(Cl)cc(Cl)c3)c2)CC1 [Example 109, N-((1-((2-(3,5-dichlorophenyl)-6-((5-(piperazin-1-yl)pyrazin-2-yl)oxy)pyridin-4-yl)methyl)piperidin-4-yl)methyl)acetamide] | 7.33 | 0 | 32.9 |
| CC(=O)NCC1CCN(Cc2cc(Oc3cnc(N4CCN(C)CC4)cn3)nc(-c3cc(Cl)cc(Cl)c3)c2)CC1 [Example 110, N-((1-((2-(3,5-dichlorophenyl)-6-((5-(4-methylpiperazin-1-yl)pyrazin-2-yl)oxy)pyridin-4-yl)methyl)piperidin-4-yl)methyl)acetamide] | 9.88 | 13.6 | 59.5 |
| CC(=O)NCC1CCN(Cc2cc(Oc3cnc(N4CCN(CCC(=O)O)CC4)cn3)nc(-c3cc(Cl)cc(Cl)c3)c2)CC1 [Example 111] | 22.3 | 48.8 | 29.8 |
| O=C(O)CCC1CCN(Cc2cc(Oc3cnc(N4CCN(CCO)CC4)nc3)cc(-c3cc(Cl)cc(Cl)c3)c2)CC1 [Example 114, 3-(1-((3′,5′-dichloro-5-((2-(4-(2-hydroxyethyl)piperazin-1-yl)pyrimidin-5-yl)oxy)-[1,1′-biphenyl]-3-yl)methyl)piperidin-4-yl)propanoic acid] | 26.6 | 38.1 | 74.2 |
| CC(=O)NCC1CCN(Cc2cc(Oc3ccc(N4CCN(CCC(=O)O)CC4)nc3)nc(-c3cc(F)cc(Cl)c3)c2)CC1 [Example 115, 3-(4-(5-((4-((4-(acetamidomethyl)piperidin-1-yl)methyl)-6-(3-chloro-5-fluorophenyl)pyridin-2-yl)oxy)pyridin-2-yl)piperazin-1-yl)propanoic acid] | 4.53 | 2.3 | 59.2 |
